Laboratory results reported in US12611442B2, “mRNA encoding engineered CFTR” (Translate Bio, Inc., priority 2019, dated 2026).

Legend:
Assay type in all cases: cell-based
[1] = tested on: FRT cells; test: Time-course Ussing chamber assay (duration of activity, 22 and 44 hours); conditions: at 44 hours (measured at 22 and 44 hours); FIG. 14A, 14B
Experimental: In this example, duration of activity of various phosphomimetic CFTR mutants were tested in combination with the K14R mutation using a time-course Ussing chamber assay as described in Example 3.
Activity of various CFTR proteins listed in Table 12 were measured at 22 and 44 hours. Short-circuit current (Isc), the movement of ions as measured in the Ussing chamber from active transport, was plotted for each CFTR protein at 22 and 44 hours.

[2] = tested on: FRT cells; test: Ussing chamber assay: short-circuit current (chloride ion transport) of cells transfected with WT or engineered CFTR mRNA; sequential forskolin, VX-770, CFTRinh-172
Experimental: Chloride ion transport was measured by an Ussing chamber. This assay provides an indication of chloride flux based on the principle that the epithelium pumps ions from one side to another and ions leak back through tight junctions situated between epithelial cells. The voltage difference between two sides of the epithelium is measured using two voltage electrodes placed near the tissue/epithelium. The voltage is cancelled out by injecting current, using two other electrodes placed away from the epithelium. The short circuit current is measured as net chloride ion transport.
Traces show short-circuit current measurements during sequential additions of forskolin, an activator of CFTR-mediated chloride secretion, and VX-770 (ivacaftor), a potentiator compound that directly increases phosphorylation-dependent CFTR channel opening on amphotericin B-permeabilized membranes. CFTR proteins A-D responded to forskolin activation resulting in increased chloride ion conductance. Forskolin activation was not observed for CFTR Protein E, the ATP hydrolysis deficient E1371Q mutant. Further addition of VX-770 increased conductance in CFTR Proteins B-D.
In this example, activation of various engineered CFTR protein mutants (proteins B-E, discussed above) were compared with the activation of wild type CFTR (protein A) using the Ussing assay as described in Example 3. In this example the engineered CFTR protein activity was tested at a low concentration of 0.35 μg (FIG. 4).
In this example, activities of various engineered phosphomimetic CFTR protein mutants (Table. 9) were compared with the activity of wild-type CFTR using the Ussing chamber assay as described in Example 3.

[3] = tested on: HEK293 cells; test: CFTR protein expression by protein gel / Western blot (C band); conditions: for C-band expression (quantification of Western blot): FIG. 11A, 11B; for expression in the C band (mature complex glycosylated CFTR): HEK293 lysates, FIG. 18A-18C
Experimental: The CFTR band is depicted by an arrow (FIG. 3A).
To examine the expression of CFTR mutants, expression of the wild-type CFTR, 15E, 13E, and E1371Q mutants was quantified as shown in FIG. 11A and FIG. 11B.
Studies were also performed to assess in vitro translation and tolerability of CFTR mutants. […] The “C band” refers to mature complex glycosylated form of CFTR.

[4] = HEK293 cells, versus wild-type CFTR
[5] = 0.35 μg (low concentration), FRT cells, FIG. 4

Molecule: 15E/K14R: K14R plus the 15E substitutions (codon optimized: SEQ ID NO: 51)
- remaining activity (short-circuit current, Isc) [1]: highest remaining activity at 44 hours

Molecule: 13E: S422E, S660E, S670E, S686E, T690E, S700E, S712E, S753E, T787E, T788E, T790E, S795E, S813E (codon optimized: SEQ ID NO: 52)
- CFTR activity, glutamate (E) versus aspartate (D) substitutions ([2]; 13 or 15 R-domain substitutions, FRT cells, FIG. 9A, 9B, 11E): greater CFTR activity
- effect of additional K14R substitution on chloride conductance of the named protein ([2]; FIG. 14C): no effect
- change in activity when K14R mutation is combined with the named phosphomimetic mutant ([2]; maximum activated current, FRT cells, FIG. 11C, 11D): no significant increase in the activity
- C-band expression (quantification of Western blot) [3, 4]: increased C-band expression
- increase in protein (C-band, quantification of Western blot) ([3]; HEK293 cells, versus wild-type CFTR, FIG. 11B): greater than 2 fold
- expression in the C band (mature complex glycosylated CFTR) [3]: increased expression in the C band
- remaining activity (short-circuit current, Isc) [1]: highest remaining activity at 44 hours

Molecule: E1371Q/K14R: E1371Q plus K14R (codon optimized: SEQ ID NO: 49)
- activity compared to wild-type CFTR and to E1371Q-only CFTR ([2]; FRT cells, FIG. 13A, 13B): increased activity
- expression compared to wild-type CFTR and to E1371Q-only CFTR ([3]; FIG. 13B): increased expression
- expression in the C band (mature complex glycosylated CFTR) [3]: increased expression in the C band
- remaining activity (short-circuit current, Isc) [1]: high remaining activity at 44 hours

B1: CFTR Protein E: E1371Q, ATP hydrolysis deficient (SEQ ID NO: 44, 48) (nucleic acid)
DNA: GTGCAGCCCCTGCTGCTCGGCAGAATCATCGCCTCATACGATCCAGACAACAAGGAAGAAAGAAGCATCGCCATCTACCTGGGCATTGGCCTCTGCCTCCTGTTTATTGTGCGGACTCTGCTGCTGCACCCAGCAATTTTCGGGTTGCATCATATTGGCATGCAGATGCGCATTGCTATGTTTTCCCTCATCTACAAAAAGACACTGAAACTCAGCTCCCGGGTGCTGGACAAGATCTCCATCGGCCAACTGGTGTCTCTCCTGAGCAATAACTTGAATAAGTTCGACGAAGGGCTGGCCCTGGCACACTTCGTGTGGATTGCCCCCCTGCAGGTGGCCCTGCTGATGGGACTGATTTGGGAACTGCTGCAGGCTAGCGCTTTCTGCGGCCTGGGGTTCCTGATCGTGCTGGCACTGTTTCAGGCAGGCCTGGGCCGTATGATGATGAAGTACAGAGACCAGAGGGCCGGGAAGATCTCCGAACGGCTCGTTATTACCTCTGAGATGATCGAGAACATTCAGTCTGTGAAAGCCTACTGCTGGGAGGAGGCTATGGAGAAGATGATCGAGAATCTGAGACAGACCGAGCTGAAGCTGACCAGAAAGGCCGCCTACGTGAGGTACTTCAACAGCAGTGCCTTCTTCTTCTCTGGCTTCTTCGTTGTGTTTCTGAGCGTGCTGCCATACGCTCTCATCAAAGGCATCATCCTGCGGAAGATCTTCACCACCATCAGCTTTTGCATCGTGCTTAGAATGGCCGTGACCCGGCAGTTCCCATGGGCCGTGCAAACTTGGTATGATTCCCTGGGCGCCATCAACAAAATCCAGGATTTCCTGCAGAAGCAGGAATACAAGACACTCGAATATAATCTCACAACTACTGAGGTGGTTATGGAGAACGTGACTGCCTTCTGGGAGGAGGGGTTCGGAGAGCTTTTTGAGAAGGCAAAACAGAATAACAACAACCGCAAAACCAGCAACGGCGACGACAGCCTGTTCTTCTCCAATTTTTCTCTCCTGGGAACACCCGTCCTCAAAGACATCAACTTTAAGATCGAGAGGGGACAGCTGCTCGCAGTCGCCGGATCCACAGGCGCCGGCAAGACCTCTCTGCTGATGGTTATCATGGGCGAACTGGAGCCATCCGAGGGCAAGATTAAGCACAGTGGAAGAATCTCCTTTTGTAGCCAGTTCAGTTGGATTATGCCCGGCACTATTAAGGAGAATATCATTTTTGGGGTGAGCTATGATGAGTATCGGTATCGGAGCGTTATCAAAGCCTGTCAGCTGGAGGAGGATATCAGCAAATTCGCAGAGAAGGATAATATCGTGCTGGGGGAGGGGGGAATCACCCTGAGCGGAGGCCAGAGAGCCAGAATCTCACTGGCCCGGGCCGTCTACAAGGACGCCGACCTTTACCTTCTGGACAGTCCCTTTGGATATCTGGATGTGCTGACTGAAAAGGAGATCTTCGAGTCTTGTGTGTGCAAG
- forskolin activation ([2]; 0.35 μg (low concentration), FIG. 4): forskolin activation at a lower dose in comparison to other constructs tested
- conductance prior to forskolin addition [2, 5]: significant pre-forskolin conductance
- overall activity compared to wild-type CFTR [2, 5]: overall increased activity
- response to forskolin activation (chloride ion conductance, short-circuit current) ([2]; 0.5 μg CFTR (high concentration), amphotericin B-permeabilized membranes, FIG. 3B): not observed
- forskolin activation and increased activity by addition of VX-770 ([2]; FIG. 12A, 12B): minimal response to VX-770
- activity / conductance (short circuit current) compared to wild-type CFTR ([2]; FRT cells, FIG. 12A, 12B): overall higher conductance than the wild-type CFTR
- activity pattern across doses ([2]; doses 0.05-0.35 μg/well, FIG. 5): consistent activity pattern across treatments
- effect of K1218R mutation on activity of the named CFTR protein ([2]; short-circuit conductivity, FIG. 15C): decreases activity
- C-band expression (quantification of Western blot) [3, 4]: increased C-band expression
